Data reported in BindingDB's records for doi:10.1016/j.bmcl.2006.12.086 (Valeant Pharmaceuticals Research and Development, 2007).
pIC50: −log10 of the molar value.

The molecules below were run against Serine/threonine-protein kinase pim-1 (Homo sapiens, UniProt P11309) (assay: Radioactive Filter Plate Assay). Details: pH 7.5; 23 °C.
Experimental: PIM-1 kinase activity was evaluated using calf thymus histones as the substrate in a 96-well filter plate format. After incubation, the plate was washed and dried. The scintillation cocktail was added and the radioactivity counted on a TopCount plate reader (Perkin-Elmer).

Sequence of Serine/threonine-protein kinase pim-1 (P11309 whole entry): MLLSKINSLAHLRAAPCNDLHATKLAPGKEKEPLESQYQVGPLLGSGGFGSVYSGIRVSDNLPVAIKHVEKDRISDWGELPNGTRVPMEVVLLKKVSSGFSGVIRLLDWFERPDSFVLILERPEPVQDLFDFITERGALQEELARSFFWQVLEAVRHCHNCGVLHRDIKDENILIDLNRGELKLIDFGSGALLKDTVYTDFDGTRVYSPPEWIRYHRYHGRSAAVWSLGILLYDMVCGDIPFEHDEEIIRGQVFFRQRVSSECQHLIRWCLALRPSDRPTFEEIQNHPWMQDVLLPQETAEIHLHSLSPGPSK

Structure (SMILES)	pIC50
N#Cc1c(C(F)(F)F)cc(-c2ccco2)[nH]c1=O [6-(furan-2-yl)-2-oxo-4-(trifluoromethyl)-1,2-dihydropyridine-3-carbonitrile]	4.80
N#Cc1c(-c2cccs2)c2c([nH]c1=O)-c1ccccc1OC2 [4-oxo-6-(thiophen-2-yl)-9-oxa-3-azatricyclo[8.4.0.0^{2,7}]tetradeca-1(14),2(7),5,10,12-pentaene-5-carbonitrile]	6.34
N#Cc1c(-c2ccco2)c2c([nH]c1=O)-c1ccccc1OC2 [6-(furan-2-yl)-4-oxo-9-oxa-3-azatricyclo[8.4.0.0^{2,7}]tetradeca-1(14),2(7),5,10,12-pentaene-5-carbonitrile]	6.06
N#Cc1c(-c2cccs2)c2c([nH]c1=O)-c1ccccc1SC2 [4-oxo-6-(thiophen-2-yl)-9-thia-3-azatricyclo[8.4.0.0^{2,7}]tetradeca-1(10),2(7),5,11,13-pentaene-5-carbonitrile]	5.83
N#Cc1c(-c2cccs2)cc(-c2cccs2)nc1O [2-oxo-4,6-bis(thiophen-2-yl)-1,2-dihydropyridine-3-carbonitrile]	6.00
N#Cc1c(-c2cccs2)cc(C(F)(F)F)[nH]c1=O [2-oxo-4-(thiophen-2-yl)-6-(trifluoromethyl)-1,2-dihydropyridine-3-carbonitrile]	5.45
